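Tested at 5 concentrations; 48 h exposure; 96-well plates; endpoints linearly interpolated, else capped at highest concentration. The concentration for 50% growth inhibition is given as GI50. Definition used: TGI = concentration required for complete inhibition of growth.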
Columns and labels:
Assay in all cases: NCI-60 cell line screen, 48 h
HL-60(TB) leukemia = tested on: HL-60(TB) leukemia
HOP-92 NSCLC = tested on: HOP-92 NSCLC
A498 renal = tested on: A498 renal
SF-539 CNS = tested on: SF-539 CNS
UACC-62 melanoma = tested on: UACC-62 melanoma
HCC-2998 colon = tested on: HCC-2998 colon
OVCAR-8 ovarian = tested on: OVCAR-8 ovarian
SR leukemia = tested on: SR leukemia
SK-MEL-5 melanoma = tested on: SK-MEL-5 melanoma
ACHN renal = tested on: ACHN renal

| SMILES | TGI (HL-60(TB) leukemia) [µM] | TGI (HOP-92 NSCLC) [µM] | TGI (A498 renal) [µM] | TGI (SF-539 CNS) [µM] | TGI (UACC-62 melanoma) [µM] | TGI (HCC-2998 colon) [µM] | TGI (OVCAR-8 ovarian) [µM] | TGI (SR leukemia) [µM] | TGI (SK-MEL-5 melanoma) [µM] | TGI (ACHN renal) [µM] | GI50 (HL-60(TB) leukemia) [nM] | GI50 (HOP-92 NSCLC) [nM] | GI50 (A498 renal) [nM] | GI50 (ACHN renal) [nM] | GI50 (SF-539 CNS) [nM] | GI50 (UACC-62 melanoma) [nM] | GI50 (HCC-2998 colon) [nM] | GI50 (OVCAR-8 ovarian) [nM] | GI50 (SR leukemia) [nM] | GI50 (SK-MEL-5 melanoma) [nM] |
| --- | --- | --- | --- | --- | --- | --- | --- | --- | --- | --- | --- | --- | --- | --- | --- | --- | --- | --- | --- | --- |
| Nc1ccc2c(c1)C1Oc3ccccc3CC1CO2 (stereo not given) | > 100 | > 100 | > 100 | > 100 | > 100 | > 100 | > 100 | > 100 | > 100 |  |  |  |  |  |  |  |  |  |  |  |
| Cn1ccnc1CCc1ccc(F)cc1F | > 100 |  | > 100 | > 100 | > 100 | > 100 | > 100 | > 100 | > 100 | > 100 |  |  |  |  |  |  |  |  |  |  |
| [O-][n+]1onc2c3nn(-c4ccccc4)nc3ccc21 | 8.68 | > 100 | > 100 | > 100 | > 100 | 44.9 | > 100 | > 75.1 | > 100 | > 100 |  |  |  |  |  |  |  |  |  |  |
| CCN1CCN(C(=O)[C@]23CC[C@@H](C)[C@H](C)[C@@H]2C2=CC[C@@H]4[C@@]5(C)C/C(=C/c6cccnc6)C(=O)C(C)(C)[C@@H]5CC[C@@]4(C)[C@]2(C)CC3)CC1 | 5 | 5.73 | 4.05 | 3.05 | 2.96 | 3 | 6.29 | 7.09 | 3.14 | 6.45 | 2080 | 1570 | 1900 | 2460 | 1660 | 1510 | 1550 | 2320 | 2380 | 1750 |
| CC1(CCCC2(C)CCNC2=O)OCCO1 (stereo not given) | > 10 |  | > 10 | > 10 | > 10 | > 10 | > 10 | > 10 | > 10 | > 10 |  |  |  |  |  |  |  |  |  |  |
| Cc1cc(NS(=O)(=O)c2ccc(NC(=O)c3ccc4nc5ccccc5c(Nc5ccc(S(=O)(=O)N=C(N)N)cc5)c4c3)cc2)no1 | 46.2 | 67.6 | 33.7 | 44.9 | 46.5 | 30.8 | 32.9 | 46.7 | 30.5 | 26.4 |  |  |  |  |  |  |  |  |  |  |
| NNC(=O)CC(=O)Nc1ccc(Cl)cc1 | > 100 | > 100 | > 100 | > 100 | > 100 | > 100 | > 100 | > 100 | > 100 | > 100 |  |  |  |  |  |  |  |  |  |  |
| O=C1NN=C(c2ccc(Cl)cc2)CC1C1C(=O)N(c2ccccc2)N=C1c1ccccc1 (stereo not given) | > 100 |  | 84.4 | 66.8 | 72.8 | 91.7 | > 100 | > 100 |  | > 100 |  |  |  |  |  |  |  |  |  |  |
| O=C1Cc2c(-c3ccc(Cl)cc3)cc(-c3ccccc3)nc2-c2ccccc2N1 | > 100 | 14.6 | 6.67 | 25.4 | > 58.9 | 24.2 | 11.6 | > 100 | 21 | 28.3 |  |  |  |  |  |  |  |  |  |  |
| C=Nc1ccc([N+](=O)[O-])cc1 | > 100 | > 100 | > 100 | > 100 | > 100 | > 100 | > 100 | > 80.1 | > 100 | > 100 |  |  |  |  |  |  |  |  |  |  |
| O=C(Nc1ccccc1)c1cc2c(cc1Cl)Sc1nccn1S2(=O)=O | 56.1 | 18.5 | > 70.9 | > 83.6 | 38.4 | 37.7 | > 100 | > 73 | 31.1 | > 83.1 |  |  |  |  |  |  |  |  |  |  |
| CCN(CC)CCCCCCCCNc1c2ccc(Cl)cc2nc2ccc(OC)cc12 | 4.08 | 3.31 | 2.78 | 2.87 | 3.22 | 6.99 | 3.64 | 0.73 | 2.89 | 2.5 | 2040 | 1390 | 1410 | 1030 | 1420 | 1800 | 1770 | 1390 | 289 | 1540 |
| CCSSCS(C)(=O)=O | > 100 | 73.5 | 96.2 | 29.5 | > 100 | 34.7 | 57.4 | > 100 | > 100 | > 100 |  |  |  |  |  |  |  |  |  |  |
| CC1(C)C2CCC1(CS(=O)(=O)Nc1ccccc1)C(=O)C2 (stereo not given) | > 100 | > 100 | > 100 | > 100 | > 100 | > 100 | > 100 | > 100 | > 100 | > 100 |  |  |  |  |  |  |  |  |  |  |
| CN(C(=O)C12C3C4(C(=O)O)C1(C(=O)N(C)C(C)(C)C)C1C2(C(=O)O)C3(C(=O)N(C)C(C)(C)C)C14C(=O)N(C)C(C)(C)C)C(C)(C)C (stereo not given) | > 100 | > 100 | > 100 | > 100 | > 100 | > 100 | > 100 | > 100 | > 100 | > 100 |  |  |  |  |  |  |  |  |  |  |
| COCn1c2ccc(OC(C)=O)cc2c2c(=O)oc(C)nc21 | > 100 | > 100 | > 100 | > 100 | > 100 | > 100 | > 100 | > 100 | > 100 | > 100 |  |  |  |  |  |  |  |  |  |  |
